Assay: xn = mol fraction of the nth substance listed
Settings: 101.33 kPa, Liquid, vibrating tube

CCC(=O)O [propanoic acid] + CC(C)=O
mass density [kg/m3]
Settings | x2 = 0 | x2 = 0.1014 | x2 = 0.1991 | x2 = 0.3046 | x2 = 0.4011 | x2 = 0.5001 | x2 = 0.603 | x2 = 0.6887 | x2 = 0.7703 | x2 = 0.8987
283.15 K | 1004.11 | 987.375 | 970.353 | 951.246 | 933.088 | 913.785 | 892.899 | 874.585 | 856.85 | 826.598
288.15 K | 998.688 | 982.013 | 965.023 | 945.944 | 927.765 | 908.446 | 887.52 | 869.18 | 851.407 | 821.062
293.15 K | 993.261 | 976.644 | 959.68 | 940.613 | 922.423 | 903.081 | 882.117 | 863.74 | 845.923 | 815.482
298.14 K | – | – | 954.344 | – | 917.072 | 897.705 | – | 858.28 | 840.415 | 809.87
298.15 K | 987.847 | 971.282 | – | 935.277 | – | – | 876.699 | – | – | –
303.14 K | 982.44 | 965.92 | 948.999 | 929.933 | 911.708 | 892.312 | 871.26 | 852.794 | 834.877 | 804.221
308.15 K | 977.037 | 960.555 | 943.653 | 924.579 | 906.33 | 886.9 | 865.798 | 847.276 | 829.305 | 798.532
313.14 K | 971.635 | 955.192 | – | – | – | – | 860.309 | – | 823.695 | –
313.15 K | – | – | 938.294 | 919.21 | 900.935 | 881.462 | – | 841.731 | – | 792.797
318.14 K | 966.24 | 949.825 | 932.928 | 913.828 | 895.523 | 876.007 | 854.791 | 836.154 | 818.051 | 787.018
323.14 K | 960.843 | – | 927.551 | 908.43 | 890.087 | – | – | – | 812.366 | 781.194
323.15 K | – | 944.448 | – | – | – | – | 849.244 | 830.541 | – | –

CCC(=O)O [propanoic acid] + O
mass density [kg/m3]
Settings | x1 = 0.1298 | x1 = 0.2029 | x1 = 0.3012 | x1 = 0.4007 | x1 = 0.5008 | x1 = 0.5989 | x1 = 0.6974 | x1 = 0.7965 | x1 = 0.8915 | x1 = 1
283.15 K | 1026.89 | 1033.97 | 1034.47 | 1032.63 | 1029.26 | 1025.17 | 1020.51 | 1015.43 | 1010.32 | 1004.11
288.14 K | – | – | – | 1027.99 | – | – | – | – | 1005.04 | –
288.15 K | 1023.97 | 1030.05 | 1029.92 | – | 1024.44 | 1020.22 | 1015.46 | 1010.26 | – | 998.688
293.14 K | – | 1026.08 | 1025.58 | – | – | – | 1010.39 | – | – | –
293.15 K | 1020.98 | – | – | 1023.31 | 1019.59 | 1015.26 | – | 1005.1 | 999.76 | 993.261
298.14 K | – | 1022.05 | 1021.14 | – | 1014.72 | – | 1005.31 | 999.927 | – | –
298.15 K | 1017.85 | – | – | 1018.61 | – | 1010.28 | – | – | 994.478 | 987.847
303.14 K | 1014.61 | – | 1016.76 | 1013.88 | 1009.8 | 1005.29 | – | 994.744 | – | 982.44
303.15 K | – | 1017.97 | – | – | – | – | 1000.22 | – | 989.192 | –
308.14 K | – | – | – | – | – | – | – | 989.551 | – | –
308.15 K | 1011.28 | 1013.84 | 1012.25 | 1009.12 | 1004.17 | 1000.27 | 995.12 | – | 983.905 | 977.037
313.14 K | 1007.85 | 1009.64 | 1007.69 | – | 999.956 | 995.242 | 990.001 | – | 978.613 | 971.635
313.15 K | – | – | – | 1004.33 | – | – | – | 984.345 | – | –
318.14 K | 1004.32 | 1005.39 | 1003.09 | 999.507 | 994.902 | 990.186 | 984.864 | 979.126 | 973.307 | 966.24
323.14 K | 1000.71 | 1001.09 | 998.434 | 994.651 | – | 985.106 | – | 973.895 | 967.999 | –
323.15 K | – | – | – | – | 990.008 | – | 979.705 | – | – | 960.843

From the NIST ThermoML archive (doi:10.1021/je030102f)
